{"source": "patent US20260285810A1", "about": "“CRYSTAL FORM OF MUSCARINE ANTAGONIST, METHOD FOR PREPARING SAME, AND USE THEREOF” (SICHUAN KELUN PHARMACEUTICAL RESEARCH INSTITUTE CO., LTD., priority 2023, published 2026)", "type_in_all_cases": "physicochemical", "key": {"[1]": {"assay": "Temperature- and humidity-mediated crystal transformation (XRPD, HPLC purity, KF water content)", "protocol": "(§1) The XRPD pattern of the crystal form is collected using an X'Pert3 Powder diffractometer, which uses Cu […] irradiation and performs detection using Absolute scan at room temperature. The detection range is from 3.5° to 40°, with a step size of 0.013°, a dwell time of 50 s, and one scan.\nSamples 1 and 2 were tested for XRPD, HPLC purity, and KF water content."}, "[2]": {"assay": "Accelerated and long-term storage, crystal form by XRPD", "protocol": "The packaged samples were stored under conditions of 30° C./35% RH and 40° C./75% RH, and collected and investigated for crystal forms at day 0, 3 months, and 6 months, respectively."}, "[3]": {"assay": "Dynamic vapor sorption (DVS) evaluation", "conditions": "DVS 25° C.", "protocol": "The DVS pattern of the crystal form is tested using a DVS Intrinsic (SMS) at a test temperature of 25° C. and detected in cycle-DMDT mode.\nDynamic vapor sorption curve (also referred to as adsorption-desorption characteristic curve) was evaluated using a DVS Intrinsic (SMS). Approximately 30 mg of the sample prepared in Example 1 was subjected to a three-stage programmed scanning method at room temperature (25° C.) as follows: the first-stage hygroscopicity program involving a stepwise increase in relative humidity from 60% RH to 90% RH, with a relative humidity change rate of 10% RH/step; the second-stage hygroscopicity program involving a stepwise decrease in relative humidity from 90% RH to 0% RH, with a relative humidity change rate of 10% RH/step; and the third-stage hygroscopicity program involving a stepwise increase in relative humidity from 0% RH to 90% RH, with a relative humidity change rate of 10% RH/step. The mass change rate mode (dm/dt mode) was used, where when the mass change rate (dm/dt) was ≤0.005%, the instrument program controlled the switching of the relative humidity (RH) to the next stage and maintained constant humidity (+/−10% RH)."}, "[4]": {"assay": "Particle size distribution (Malvern Mastersizer 3000)", "conditions": "Example 1 batch; dispersion solvent water", "protocol": "Test method: The particle type is set as non-spherical, the particle refractive index is 1.52, the particle absorption rate is 0.001, and the rotation speed is 1800 rpm; the obscuration is 2%-15%, the sample background test time is 10 seconds, the dispersion solvent is water, the dispersant refractive index is 1.330, and the stabilization time is about 30 seconds; the number of tests is 3."}, "[5]": {"assay": "Bulk density and tap density (powder density tester)", "conditions": "Example 1 batch", "protocol": "The top surface is carefully leveled, and the apparent volume is recorded. The cylinder is then placed on the powder density tester and shaken at a frequency of 1250. The taped volume is recorded, and then the tap density is calculated. The same batch of samples is tested three times in parallel."}, "[6]": {"assay": "Influencing factors stability: high temperature, high humidity, illumination, accelerated conditions (XRPD, HPLC purity)", "conditions": "for remaining at 840 h: solid state", "from_the_text": "Samples were collected and tested for XRPD and HPLC purity at day 0, day 5, day 10, and day 35, respectively."}, "[7]": {"assay": "Hygroscopic weight gain on storage at 80% humidity for 24 hours", "conditions": "stored under a humidity condition of 80%+2% for 24 hours"}, "[8]": {"assay": "Drying of wet crystal product with Karl Fischer water content and XRPD testing", "conditions": "drying at 30° C.-35° C., vacuum", "protocol": "as §1\nThe wet crystal product of Example 1 was dried under conditions of a temperature of 30° C.-35° C. and a vacuum degree of −0.08 Mpa. During the drying, the samples were collected for Karl Fischer water content testing and XRPD."}, "[9]": {"assay": "Angle of repose (powder comprehensive characteristic tester)", "conditions": "Example 1 batch", "protocol": "The powder falls through the funnel to form a cone, and then the angle between the inclined plane and the horizontal plane is determined. The test is repeated in triplicate."}, "[10]": {"conditions": "before/after drying (30° C., vacuum, humidity ≤20%, 24 h) and re-storage (RH 60%-80%, 25° C.-30° C., 24 h)"}, "[11]": {"conditions": "Illumination at 25° C. (4500 lx), day 35"}, "[12]": {"conditions": "day 0, Example 3 batch, packaged"}}, "data": [{"smiles": "CN(CCN1CCC(OC(=O)Nc2ccccc2-c2ccccc2)CC1)C(=O)c1ccc(CN2CCC(C(N)=O)CC2)cc1", "note": "[crystal form A of revefenacin]", "values": [{"measurement": "HPLC %", "setting": "[1]; [10]", "result": 99.79, "unit": "%"}, {"measurement": "KF/water content", "setting": "[1]; [10]", "result": 9.1, "unit": "%"}, {"measurement": "XRPD", "setting": "[1]; [10]", "result": "Crystal form A"}, {"measurement": "chemical purity of the crystal form", "setting": "[1]; during the temperature- and humidity-mediated mutual transformation of crystal forms", "result": "remains unchanged"}, {"measurement": "crystal form and crystallinity", "setting": "[2]; 3-month and 6-month storage under the accelerated condition (40° C./75% RH)", "result": "remains unchanged in both crystal form and crystallinity"}, {"measurement": "crystal form", "setting": "[2]; 30° C./35% RH, 6 months", "result": "Crystal form A"}, {"measurement": "crystal form", "setting": "[2]; 30° C./35% RH, day 0", "result": "Crystal form A"}, {"measurement": "crystal form", "setting": "[2]; 40° C./75% RH, 3 months", "result": "Crystal form A"}, {"measurement": "crystal form", "setting": "[2]; 40° C./75% RH, 6 months", "result": "Crystal form A"}, {"measurement": "crystal form", "setting": "[2]; 40° C./75% RH, day 0", "result": "Crystal form A"}, {"measurement": "crystal form and crystallinity", "setting": "[2]; long-term conditions (30° C./35% RH) for 6 months", "result": "remains unchanged in both crystal form and crystallinity"}, {"measurement": "hygroscopic weight gain", "setting": "[3]; humidity increased from 60% RH to 90% RH, sample of Example 1", "result": "< 0.4", "unit": "%"}, {"measurement": "hygroscopic weight gain", "setting": "[3]; within the range of 30%-90% RH, sample of Example 1", "result": "< 2", "unit": "%"}, {"measurement": "crystal form of the samples collected during the DVS process", "setting": "[3]; sample of Example 1", "result": "remains unchanged"}, {"measurement": "DVS curve characteristics", "setting": "[3]; sample of Example 1, FIG. 5", "result": "reversible adsorption/desorption characteristics and low hygroscopicity"}, {"measurement": "particle size D10", "setting": "[4]", "result": 8.40, "unit": "μm"}, {"measurement": "particle size D50", "setting": "[4]", "result": 25.86, "unit": "μm"}, {"measurement": "particle size D90", "setting": "[4]", "result": 53.59, "unit": "μm"}, {"measurement": "bulk density", "setting": "[5]", "result": 0.285, "unit": "g/mL"}, {"measurement": "tap density", "setting": "[5]", "result": 0.494, "unit": "g/mL"}, {"measurement": "XRPD crystal form", "setting": "[6]; 40° C., day 5", "result": "form A"}, {"measurement": "XRPD crystal form", "setting": "[6]; 40° C., day 10", "result": "form A"}, {"measurement": "XRPD crystal form", "setting": "[6]; 40° C., day 35", "result": "Crystal form A"}, {"measurement": "XRPD crystal form", "setting": "[6]; 40° C./75% RH, day 5", "result": "form A"}, {"measurement": "XRPD crystal form", "setting": "[6]; 40° C./75% RH, day 10", "result": "form A"}, {"measurement": "XRPD crystal form", "setting": "[6]; 40° C./75% RH, day 35", "result": "Crystal form A"}, {"measurement": "XRPD crystal form", "setting": "[6]; 92.5% RH (25° C.), day 5", "result": "form A"}, {"measurement": "XRPD crystal form", "setting": "[6]; 92.5% RH (25° C.), day 10", "result": "form A"}, {"measurement": "XRPD crystal form", "setting": "[6]; 92.5% RH (25° C.), day 35", "result": "Crystal form A"}, {"measurement": "XRPD crystal form", "setting": "[6]; Illumination at 25° C. (4500 lx), day 5", "result": "form A"}, {"measurement": "XRPD crystal form", "setting": "[6]; Illumination at 25° C. (4500 lx), day 10", "result": "form A"}, {"measurement": "XRPD crystal form", "setting": "[6]; [11]", "result": "Crystal form A"}, {"measurement": "Purity (HPLC)", "setting": "[6]; [12]", "result": "Purity: 99.87%"}, {"measurement": "XRPD crystal form", "setting": "[6]; [12]", "result": "form A"}, {"measurement": "crystal form on exposure to stress conditions", "setting": "[6]; high temperature (40° C.), high humidity (92.5% RH), illumination and accelerated (40° C./75% RH) conditions", "result": "remains unchanged"}, {"measurement": "remaining at 840 h", "setting": "[6]; 40° C., day 35", "result": 99.9, "unit": "%"}, {"measurement": "remaining at 840 h", "setting": "[6]; 40° C./75% RH, day 35", "result": 99.9, "unit": "%"}, {"measurement": "remaining at 840 h", "setting": "[6]; 92.5% RH (25° C.), day 35", "result": 99.9, "unit": "%"}, {"measurement": "remaining at 840 h", "setting": "[6]; [11]", "result": 99.9, "unit": "%"}, {"measurement": "hygroscopic weight gain", "setting": "[7]", "result": "< 2", "unit": "%"}, {"measurement": "crystal form (XRPD)", "setting": "[8]; KF water content=7.1%", "result": "mixed crystals"}, {"measurement": "crystal form (XRPD)", "setting": "[8]; KF water content=8.3%", "result": "crystal form A"}, {"measurement": "crystal form (XRPD)", "setting": "[8]; KF water content=8.9%", "result": "crystal form A"}, {"measurement": "crystal form (XRPD)", "setting": "[8]; KF water content=17%", "result": "crystal form A"}, {"measurement": "powder angle of repose", "setting": "[9]", "result": 45, "unit": "°"}]}]}
